Source: patent US20050147565A1, “Pharmaceutical compositions for the treatment of asthma” (Schering Corporation, priority 2001, published 2005)
Blank lines part the entries; values can stand above or below the compound they belong to.

Key:
[1] = Andersen Cascade Impactor particle size distribution of the emitted dose of the metered dose inhaler; format: physicochemical; conditions: Formoterol/Mometasone 6/50 μg/actuation inhaler
From the text: The formulations of the present invention were further analyzed using an Andersen Cascade Impactor as described in Examples 6 and 7. The Andersen Cascade Impactor is widely used for measuring the particle size distribution of airborne particles and more specifically pharmaceutical aerosols. The eight stage Andersen Impactor separates the sample into nine size intervals when used with a backup filter after the last impaction stage. In FIGS. 1 to 4, this corresponds Stage 0 of particles having a particle size less than 10 μm to a particle size of 0.65-0.43 μm in stage 8, with the final stage corresponding to the filter for particles less than 0.43 μm. The measurement of the particle size at the “throat” in the figures corresponds to the entry port of the Impactor. The fine particle fraction is defined as the percentage of particles having a particle size of less than 4.7 μm. The fine particle dose is defined as the amount in μg per dose that is less than 4.7 μm in size in each actuation. The μg/shot is the total amount of emitted drug product that exits the metered dose inhaler upon actuation. The determination of the particle size distribution of the emitted dose of the formulation using an Andersen Cascade Impactor is known to one of skill in the art.
A formulation containing 6 μg of formoterol fumarate and 50 μg of mometasone furoate using HFA 227 in the absence of a bulking agent or carrier in a metered dose inhaler was analyzed by an Andersen Cascade Impactor to 5 analyze the amount of active drug ingredients and the particle size of the actives exiting the inhaler over time. […] The metered dose for both actives over time was also within acceptable limits (62.9 to 63.3 for mometasone and 6.6 to 6.5 for formoterol at the 4 month point). […]
A formulation containing 6 μg of formoterol fumarate and 50 μg of mometasone furoate using HFA 134a with lactose as a bulking agent in a metered dose inhaler was analyzed by an Andersen Cascade Impactor to analyze the amount of active drug ingredients and the particle size of the actives exiting the inhaler over time. […] Additionally, the metered dose actually delivered was also maintained over time within acceptable limits (64.1 to 63.7 for mometasone, 6.9 to 6.6 for formoterol). The fine particle fraction for both mometasone and formoterol was maintained within acceptable limits.

[2] = Drug Content Uniformity (DCU) through the life of a 120 dose MDI; format: physicochemical; conditions: Formoterol/Mometasone 6/50 μg/actuation inhaler
Method: The Drug Content Uniformity (DCU) of the inhaler was measured throughout the life of a 120 dose MDI to ascertain whether there was a consistency of dose of the active ingredients throughout the life of the product. Five canisters of each formulation (HFA 227 or HFA 134a) were analyzed and each canister delivered 120 actuations of medication and the amount of actives exiting the inhaler per actuation was measured at varying actuations, e.g., numbers 11, 12, 13, 14, (beginning) 59, 60, 61, 62 (middle) and 117, 118, 119 and 120 (end). Means were determined for the beginning, middle and end actuations, and an overall mean was determined and set forth in Examples 9 and 10 above.

[3] = cited from earlier work
[4] = cited from earlier work; remark: listed apart in the source
[5] = Percent change in fine particle size after temperature cycling; format: physicochemical
From the text: A finer particle size distribution of the mometasone furoate improves the fine particle fraction of the formulation exiting the inhaler upon actuation of the metered dose inhaler. […] The aerodynamic particle size distribution is well within the range of a typical efficacious topical lung medication, e.g., greater than 50% of the particles are less than 4.7 microns.

[6] = HFA 134a, low bulking agent (lactose), 1 Month, 4 C./40 C.
[7] = HFA 134a, low bulking agent (lactose), 1 Month, 40 C./75%
[8] = HFA 134a, low bulking agent (lactose), 3 Month, 4 C./40 C.
[9] = HFA 134a, low bulking agent (lactose), 4 Month, 25 C./60%
[10] = HFA 134a, low bulking agent (lactose), 4 Month, 40 C./75%
[11] = HFA 134a, low bulking agent (lactose), Initial
[12] = HFA 227, without bulking agent, 1 Month, 4 C./40 C.
[13] = HFA 227, without bulking agent, 1 Month, 40 C./75%
[14] = HFA 227, without bulking agent, 3 Month, 4 C./40 C.
[15] = HFA 227, without bulking agent, 4 Month, 25 C./60%
[16] = HFA 227, without bulking agent, 4 Month, 40 C./75%
[17] = HFA 227, without bulking agent, Initial
[18] = HFA 134a, low bulking agent, 1 Month, 4 C./40 C.
[19] = HFA 134a, low bulking agent, 1 Month, 40 C./75%
[20] = HFA 134a, low bulking agent, Initial
[21] = HFA 227, no bulking agent, 1 Month, 4 C./40 C.
[22] = HFA 227, no bulking agent, 1 Month, 40 C./75%
[23] = HFA 227, no bulking agent, Initial

Compound: COc1ccc(CC(C)NCC(O)c2ccc(O)c(NC=O)c2)cc1.COc1ccc(CC(C)NCC(O)c2ccc(O)c(NC=O)c2)cc1.O.O.O=C(O)/C=C/C(=O)O (racemic) [Formoterol Fumarate, (±)2-hydroxy-5-[(1RS)-1-hydroxy-2-[[(1RS)-2-(4-methoxyphenyly-1methylethyl]-amino]ethyl]formanilide fumarate dihydrate]
Fine Particle Dose (μg/shot) [1, 6]: 2.0 μg/shot | Fine Particle Fraction % [1, 6]: 38.0% | MMAD (microns) [1, 6]: 3.1 microns | Fine Particle Dose (μg/shot) [1, 7]: 2.1 μg/shot | Fine Particle Fraction % [1, 7]: 41.3% | MMAD (microns) [1, 7]: 2.9 microns | Fine Particle Dose (μg/shot) [1, 8]: 2.2 μg/shot | Fine Particle Fraction % [1, 8]: 40.2% | MMAD (microns) [1, 8]: 3.2 microns | Fine Particle Dose (μg/shot) [1, 9]: 2.3 μg/shot | Fine Particle Fraction % [1, 9]: 43.6% | MMAD (microns) [1, 9]: 3.0 microns | Fine Particle Dose (μg/shot) [1, 10]: 2.1 μg/shot | Fine Particle Fraction % [1, 10]: 40.3% | MMAD (microns) [1, 10]: 3.1 microns | Fine Particle Dose (μg/shot) [1, 11]: 2.4 μg/shot | Fine Particle Fraction % [1, 11]: 42.5% | MMAD (microns) [1, 11]: 2.9 microns | Fine Particle Dose (μg/shot) [1, 12]: 2.2 μg/shot | Fine Particle Fraction % [1, 12]: 39.0% | MMAD (microns) [1, 12]: 3.3 microns | μg/shot (metered dose) [1, 12]: 6.3 μg/shot | Fine Particle Dose (μg/shot) [1, 13]: 2.4 μg/shot | Fine Particle Fraction % [1, 13]: 41.1% | MMAD (microns) [1, 13]: 3.2 microns | μg/shot (metered dose) [1, 13]: 6.6 μg/shot | Fine Particle Dose (μg/shot) [1, 14]: 1.9 μg/shot | Fine Particle Fraction % [1, 14]: 35.2% | MMAD (microns) [1, 14]: 3.3 microns | μg/shot (metered dose) [1, 14]: 6.3 μg/shot | Fine Particle Dose (μg/shot) [1, 15]: 2.6 μg/shot | Fine Particle Fraction % [1, 15]: 47.3% | MMAD (microns) [1, 15]: 3.2 microns | μg/shot (metered dose) [1, 15]: 6.5 μg/shot | Fine Particle Dose (μg/shot) [1, 16]: 2.2 μg/shot | Fine Particle Fraction % [1, 16]: 40.1% | MMAD (microns) [1, 16]: 3.4 microns | μg/shot (metered dose) [1, 16]: 6.5 μg/shot | Fine Particle Dose (μg/shot) [1, 17]: 2.6 μg/shot | Fine Particle Fraction % [1, 17]: 46.3% | MMAD (microns) [1, 17]: 3.2 microns | μg/shot (metered dose) [1, 17]: 6.6 μg/shot | Overall Mean μg/shot [2, 18]: 5.6 μg/shot | Overall Mean μg/shot [2, 19]: 6.0 μg/shot | Overall Mean μg/shot [2, 20]: 6.2 μg/shot | Overall Mean μg/shot [2, 21]: 5.5 μg/shot | Overall Mean μg/shot [2, 22]: 5.7 μg/shot | Overall Mean μg/shot [2, 23]: 5.7 μg/shot | solubility in acetone [3]: practically insoluble | solubility in diethyl ether ([3]; diethyl ether): practically insoluble | solubility in ethanol [3]: sparingly soluble | solubility in ethyl acetate ([3]; ethyl acetate): practically insoluble | solubility in glacial acetic acid ([3]; glacial acetic acid): freely soluble | solubility in isopropanol [3]: sparingly soluble | solubility in methanol [3]: soluble | solubility in water [3]: slightly soluble

Fine Particle Dose (μg/shot) [1, 6]: 10.6 μg/shot | Fine Particle Fraction % [1, 6]: 20.1% | MMAD (microns) [1, 6]: 4.3 microns | μg/shot (metered dose) [1, 6]: 65.0 μg/shot | Fine Particle Dose (μg/shot) [1, 7]: 10.1 μg/shot | Fine Particle Fraction % [1, 7]: 20.1% | MMAD (microns) [1, 7]: 4.3 microns | μg/shot (metered dose) [1, 7]: 62.2 μg/shot | Fine Particle Dose (μg/shot) [1, 8]: 10.0 μg/shot | Fine Particle Fraction % [1, 8]: 20.0% | MMAD (microns) [1, 8]: 4.6 microns | μg/shot (metered dose) [1, 8]: 62.6 μg/shot | Fine Particle Dose (μg/shot) [1, 9]: 11.4 μg/shot | Fine Particle Fraction % [1, 9]: 22.6% | MMAD (microns) [1, 9]: 4.3 microns | μg/shot (metered dose) [1, 9]: 62.1 μg/shot | Fine Particle Dose (μg/shot) [1, 10]: 8.8 μg/shot | Fine Particle Fraction % [1, 10]: 17.7% | MMAD (microns) [1, 10]: 4.5 microns | μg/shot (metered dose) [1, 10]: 63.7 μg/shot | Fine Particle Dose (μg/shot) [1, 11]: 13.6 μg/shot | Fine Particle Fraction % [1, 11]: 25.7% | MMAD (microns) [1, 11]: 3.9 microns | μg/shot (metered dose) [1, 11]: 64.1 μg/shot | Fine Particle Dose (μg/shot) [1, 12]: 9.2 μg/shot | Fine Particle Fraction % [1, 12]: 16.4% | MMAD (microns) [1, 12]: 5.0 microns | μg/shot (metered dose) [1, 12]: 62.6 μg/shot | Fine Particle Dose (μg/shot) [1, 13]: 13.9 μg/shot | Fine Particle Fraction % [1, 13]: 25.3% | MMAD (microns) [1, 13]: 4.1 microns | μg/shot (metered dose) [1, 13]: 62.4 μg/shot | Fine Particle Dose (μg/shot) [1, 14]: 5.3 μg/shot | Fine Particle Fraction % [1, 14]: 9.8% | MMAD (microns) [1, 14]: 6.3 microns | μg/shot (metered dose) [1, 14]: 60.5 μg/shot | Fine Particle Dose (μg/shot) [1, 15]: 16.1 μg/shot | Fine Particle Fraction % [1, 15]: 30.4% | MMAD (microns) [1, 15]: 4.2 microns | μg/shot (metered dose) [1, 15]: 61.5 μg/shot | Fine Particle Dose (μg/shot) [1, 16]: 10.4 μg/shot | Fine Particle Fraction % [1, 16]: 18.6% | MMAD (microns) [1, 16]: 4.6 microns | μg/shot (metered dose) [1, 16]: 63.3 μg/shot | Fine Particle Dose (μg/shot) [1, 17]: 19.7 μg/shot | Fine Particle Fraction % [1, 17]: 36.5% | MMAD (microns) [1, 17]: 3.7 microns | μg/shot (metered dose) [1, 17]: 62.9 μg/shot | Overall Mean μg/shot [2, 18]: 55.7 μg/shot | Overall Mean μg/shot [2, 19]: 57.0 μg/shot | Overall Mean μg/shot [2, 20]: 59.1 μg/shot | Overall Mean μg/shot [2, 21]: 55.6 μg/shot | Overall Mean μg/shot [2, 22]: 54.9 μg/shot | Overall Mean μg/shot [2, 23]: 54.7 μg/shot | percent change in fine particle size ([5]; grade of mometasone used in Example 6 (coarse), two weeks of temperature cycling at −10° C. and 40° C.): about 50% | percent change in fine particle size ([5]; similar mdi using mometasone furoate alone, finer grade of mometasone furoate, same cycling conditions (two weeks, −10° C. and 40° C.)): ≤ 15%
Compound: C[C@@H]1C[C@H]2[C@@H]3CCC4=CC(=O)C=C[C@]4(C)[C@@]3(Cl)[C@@H](O)C[C@]2(C)[C@@]1(OC(=O)c1ccco1)C(=O)CCl [Mometasone Furoate, 9,21-Dichloro-11(beta), 17-dihydroxy-16(alpha)-methylpregna-1,4-diene-3,20-dione 17-(2 furoate)]
partition coefficient between octanol and water [4]: greater than 5000 | solubility in acetone [3]: soluble | solubility in chloroform ([3]; chloroform): soluble | solubility in ethanol [3]: slightly soluble | solubility in isopropanol [3]: slightly soluble | solubility in methanol [3]: slightly soluble | solubility in tetrahydrofuran ([3]; tetrahydrofuran): freely soluble | solubility in water [3]: practically insoluble
